Measured values from patent US7345026B2, “Hybrid or chimeric polynucleotides, proteins, and compositions comprising hepatitis B virus sequences” (Institut Pasteur, priority 1999, dated 2008).
Where “and” joins values, the source holds several entries; their conditions need not be identical. Identical values can stand only once. Entries after “also recorded” stand apart in the source; their conditions may differ. Like-named read-outs stand apart in the source and are kept apart here.

Tests used:
[1] = system: HHD-transfected RMA-S cells loaded with relevant peptides; set-up: species or system HHD mice; settings: in vivo
[2] = system: peptide-loaded HHD-transfected RMA-S cells; set-up: species or system HHD mice; settings: mouse, in vivo
[3] = system: HHD-transfected RMA-S target cells loaded with relevant peptides; set-up: species or system HHD mice; settings: mouse, in vivo
[4] = system: HHD-transfected RMA-S cells loaded with relevant peptides; set-up: species or system A2A2Kb mice; settings: in vivo, sc
[5] = system: HHD-transfected RMAS cells loaded with relevant peptides; set-up: species or system HHD mice; settings: mouse, in vivo, iv
[6] = system: HHD-transfected RMAS cells loaded with relevant peptides; set-up: species or system HHD mice; settings: mouse, in vivo
[7] = system: HHD-transfected RMAS cells loaded with relevant peptides; set-up: species or system HHD mice; settings: mouse, in vivo; remark: listed apart in the source
HLA-A2.1 molecules = HLA-A2.1 molecules (Homo sapiens, UniProt P04439, D140Y/D185E/D98H/E176V/E277Q/G131W/G231S/I119V/I121R/I166T/I218V/L300P/L318F/N151K/N90K/P208A/P217A/Q86G/Q94H/R138H/R169H/T345S)

IISAVVGIL (listed as Homo sapiens) [Her2/neu.654]
lysis in % (maximal lysis observed for each responder mouse) ([1]; sc): (42) % | CTL inducer hierarchy (in words) ([1]; mouse): weak

ILTVILGVL (listed as Homo sapiens) [Melan-A/MART-1.32]
CTL inducer hierarchy (in words) ([1]; mouse): inefficient | CTL response against the epitope after polyepitope immunization (in words) [2]: No specific lysis; also recorded: did not elicit CTL responses

ITDQVPFSV [gp100.209]
lysis in % (maximal lysis observed for each responder mouse) ([1]; sc): (23) % | CTL inducer hierarchy (in words) ([1]; mouse): weak | lysis in % [3]: (31, 36, 56) %

KTWGQYWQV [gp100.154]
CTL inducer hierarchy (in words) ([1]; mouse): strong | CTL response when co-injected with helper peptide (in words) [3]: stronger responses in a larger proportion of mice | lysis in % [3]: (43, 59, 60, 64, 77. 77, 80, 82, 85) % | CTL response against the epitope after polyepitope immunization (in words) [2]: Strong responses

LLDGTATLRL [gp100.457]
CTL inducer hierarchy (in words) ([1]; mouse): inefficient | CTL response when co-injected with helper peptide (in words) [3]: good CTL responses in a large proportion of mice; also recorded: strong CTL-inducers when associated with a helper peptide | lysis in % [3]: (14, 35, 43, 77, 79) % | CTL response against the epitope after polyepitope immunization (in words) [2]: Significant responses

LLGRNSFEV (listed as Homo sapiens) [p53.264]
CTL inducer hierarchy (in words) ([1]; mouse): inefficient; also recorded: poor CTL-induction capacity | lysis in % [3]: (37, 64) %

MLLAVLYCL (listed as Homo sapiens) [Tyrosinase.1]
CTL inducer hierarchy (in words) ([1]; mouse): inefficient | CTL response when co-injected with helper peptide (in words) [3]: good CTL responses in a large proportion of mice | lysis in % [3]: (27, 33, 40, 42, 51) % | CTL response against the epitope after polyepitope immunization (in words) [2]: No specific lysis; also recorded: did not elicit CTL responses

RMPEAAPPV (listed as Homo sapiens) [p53.65]
CTL inducer hierarchy (in words) ([1]; mouse): intermediate | CTL response when co-injected with helper peptide (in words) [3]: stronger responses in a larger proportion of mice | lysis in % [3]: (29, 31, 40, 41, 55) %

STPPPGTRV (listed as Homo sapiens) [p53.149]
CTL inducer hierarchy (in words) ([1]; mouse): inefficient | lysis in % [3]: (20, 51, 71) %

TLGIVCPI (listed as Homo sapiens) [HPV E7.86]
lysis in % (maximal lysis observed for each responder mouse) [4]: (10, 13) % | CTL inducer hierarchy (in words) ([1]; mouse): inefficient | lysis in % [3]: (34, 48) %

VLPDVFIRC (listed as Homo sapiens) [NA17-A.nt38]
lysis in % (highest specific lysis) [5]: 0 (6) % and 3 (5) % and 5 (24) % and 3 (9) % and 6 (7) % and 0 (2) % | lysis in % following a second in vitro restimulation (numbers in parentheses) [5]: 0 (6) % and 3 (5) % and 5 (24) % and 3 (9) % and 6 (7) % and 0 (2) % | CTL inducer hierarchy (in words) ([1]; mouse): intermediate | CTL response when co-injected with helper peptide (in words) [3]: stronger responses in a larger proportion of mice | lysis in % [3]: (36, 39, 61,64, 71) % | CTL response against the epitope after polyepitope immunization (in words) [2]: Strong responses

VLYRYGSFSV (listed as Homo sapiens) [gp100.476]
lysis in % (maximal lysis observed for each responder mouse) [4]: (29) % | lysis in % (maximal lysis observed for each responder mouse) ([1]; sc): (54, 70) % | CTL inducer hierarchy (in words) ([1]; mouse): weak | lysis in % [3]: (20, 22, 59, 63, 75, 79) % | CTL response against the epitope after polyepitope immunization (in words) [2]: did not elicit CTL responses

YLEPGPVTA [gp100.280]
lysis in % (highest specific lysis) [5]: 0 (1) % and 0 (0) % | lysis in % following a second in vitro restimulation (numbers in parentheses) [5]: 0 (1) % and 0 (0) % | CTL responses (in words) [6]: Some responses of weak to strong magnitude | CTL inducer hierarchy (in words) ([1]; mouse): weak | lysis in % [3]: (12, 16) % | CTL responses (in words) [7]: Some responses of weak to strong magnitude | CTL response against the epitope after polyepitope immunization (in words) [2]: No specific lysis; also recorded: did not elicit CTL responses

YLSGANLNL (listed as Homo sapiens) [CEA.571]
lysis in % (highest specific lysis) [5]: 4 (1) % and 1 (5) % and 1 (2) % and 0 (0) % and 2 (0) % and 4 (22) % | lysis in % following a second in vitro restimulation (numbers in parentheses) [5]: 4 (1) % and 1 (5) % and 1 (2) % and 0 (0) % and 2 (0) % and 4 (22) % | CTL inducer hierarchy (in words) ([1]; mouse): strong | CTL response when co-injected with helper peptide (in words) [3]: less immunogenic | lysis in % [3]: (20, 32, 46) %

YMDGTMSQV [Tyrosinase.368-D]
CTL responses (in words) [6]: Some responses of weak to strong magnitude | lysis in % (maximal lysis observed for each responder mouse) ([1]; sc): (10) % | CTL inducer hierarchy (in words) ([1]; mouse): weak | lysis in % [3]: (13, 15) % | CTL response against the epitope after polyepitope immunization (in words) [2]: elicited CTL responses depending on mice

YMNGTMSOV (YMNGTMSV; listed as Homo sapiens) [Tyrosinase.368-N]
R/T (responder versus tested mice) ([4]; mouse): 0/6 | CTL inducer hierarchy (in words) ([1]; mouse): intermediate | R/T (responder versus tested mice) ([1]; mouse, sc): 4/15 | lysis in % [3]: (21, 36, 70, 72, 78) % | R/T (responder versus tested mice) ([3]; sc): 5/12 | RA (relative affinity) (HLA-A2.1 molecules): 2.2
